Entries after “also recorded” stand apart in the source; their conditions may differ. Where two headings read alike, the source gives them in different places. *: point of attachment. Biotin = O=C1N[C@H]2[C@H](CS[C@H]2CCCCC(=O)*)N1
Experiments:
[1] = test system: platelets; experiment: Effect of inhibitors on anti-GPIIIa49-66 Ab-induced platelet particle formation / oxidative fragmentation; format: cell-based, human; set-up: effect on Ab-induced platelet particle formation: unit of the concentration uncertain
Method: Induction of Platelet Particles. […] 1×10^7 gel-filtered platelets/ml were labelled with an anti-GPIIb-FITC monoclonal Ab (MoAb) (3B2) or an anti-GPIIIa-FITC MoAb (Ancell, Bayport, Minn.), 10 ug/ml for 30 min at 4° C., centrifuged at 1000 g×6 min at room temperature, and resuspended in Tyrodes buffer. […] (see below).
Debris and dead cells were excluded using scatter gates. Only cells with low orthogonal light scattering were included in the sorting gates. Gates were adjusted for control platelets by exclusion of other blood cells. Intact platelets were monitored in the right upper quadrant (RUQ) with the Y-axis measuring forward-scatter and the X-axis measuring fluorescence. A shift in the fluorescent particles from RUQ to LUQ reflected % platelet particle induction of 10,000 counted platelets/particles.
However, a recent report by Lerner and coworkers [19]provided evidence that Ab's in general are capable of inducing peroxide formation from an assortment of Ag's depending upon the tryptophan and cysteine composition and orientation. […] This hypothesis was tested with the use of diphenyleneiodonium (DPI), an inhibitor of NADH/NADPH oxidase, as well as other flavoprotein oxidases.

[2] = test system: platelets; experiment: Platelet oxidation/fragmentation induced independently of anti-GPIIIa49-66 (DCHF-loaded platelets); format: cell-based
[3] = test system: p47phox(−/−), gp91phox(−/−)KO, 12-LO(−/−)KO mouse platelets; experiment: Platelet oxidation in NADPH oxidase and 12-LO KO mouse platelets; format: cell-based; details: gp91phox(−/−)KO and 12-LO(−/−)KO mouse platelets
Method: It has also been discovered that platelet oxidation/fragmentation can be induced independently of anti-GPIIIa49-66 by […] A23187, a Ca^++ ionophore, or 0.4 μM PMA, a protein kinase C activator. […] Their reactivity is inhibited by the oxidation scavengers catalase (H2O2) and DPI (diphenylene iodonium, an inhibitor of NADPH-oxidase), and is absent in NADPH oxidase p47phox(−/−), gp91phox(−/−)KO as well as 12-LO(−/−)KO mouse platelets. Thus, anti-GPIIIa49-66 could be inducing the intracellular effects of ionophore and PMA.

[4] = test system: platelets; experiment: Ca++ flux (fura-2, AM) in activation of oxidative platelet death
[5] = test system: platelets; experiment: Inhibition of HUVEC ADAMTS-18 induced platelet oxidation fragmentation; format: cell-based; details: single agent, n=7
Source text: Recombinant ADAMTS-18 was then made with the expression vector pBudCE4.1 in 293T cells. This peptide induced platelet 12(S)—HETE and oxidation/fragmentation in an identical kinetic fashion as anti-GPIIIa49-66 antibody. Both expressed rADAMTS-18, and HUVEC conditioned media ADAMTS-18 could be activated by thrombin (0.5μ/mL and then neutralized with hirudin), with optimum effect at one hour (n=4). HUVEC ADAMTS-18 induced oxidation fragmentation could be inhibited about 50% by an scFV antibody raised against the ADAMTS-18 (18-mer) peptide as well as GPIIIa49-66 peptide, as well as RGDS (GPIIIa ligand binding site) (n=7).

[6] = test system: mice; details: earlier reports [10], [14]; cited from earlier work
[7] = inhibitor at 2 (unit uncertain)
[8] = 4 Hrs, doubling concentrations from 50 uM/ml catalase and 5 uM/ml DPI, no UV/light irradiation

**Q.** For `O=CC[C@@H](O)[C@H](O)[C@H](O)CO` [2-deoxyglucose], which “effect on Ab-induced platelet particle formation” value ([1]; inhibitor at 3 (unit uncertain)) is on record?
**A.** unsuccessful

**Q.** With `CNc1ccc2oc(C[C@H]3O[C@@]4(CC[C@H]3C)O[C@H]([C@H](C)C(=O)c3ccc[nH]3)[C@H](C)C[C@H]4C)nc2c1C(=O)O` [A23187, calcimycin] as the molecule, how does the “induction of platelet oxidation/fragmentation” value [2] read?
**A.** induced

**Q.** What about the “oxidation of platelets loaded with the oxidative fluorochrome DCHF” value [2] of the same molecule?
**A.** induce oxidation

**Q.** And the “reactivity (platelet oxidation) in KO mouse platelets” value [3]?
**A.** absent

**Q.** With `O=C(O)CN(CC(=O)O)c1ccccc1OCCOc1ccccc1N(CC(=O)O)CC(=O)O` [BAPTA] as the molecule, how does the “inhibition of Ca++ flux” value ([4]; 10 microM) read?
**A.** completely inhibited

**Q.** With `COc1cc2c(c(OC)c1OC)-c1ccc(OC)c(=O)cc1[C@@H](NC(C)=O)CC2` [Colchicine] as the molecule, how does the “effect on Ab-induced platelet particle formation” value [1, 7] read?
**A.** unsuccessful

**Q.** For `c1ccc2c(c1)[I+]c1ccccc1-2` [DPI, diphenyleneiodonium], which “effect on Ab-induced platelet particle formation” value [1, 8] is on record?
**A.** inhibition; also recorded: inhibited

**Q.** And the “effect of oxidation scavenger on reactivity of A23187 and PMA” value [2]?
**A.** inhibited

**Q.** With `O=C(O)CN(CCOCCOCCN(CC(=O)O)CC(=O)O)CC(=O)O` [EGTA, ethylenebis(oxyethylenenitrilo)tetraacetic acid] as the molecule, how does the “inhibition of Ca++ flux” value ([4]; 100 μM) read?
**A.** completely inhibited

**Q.** For `COC(=O)CC(NC(=O)OC(C)(C)C)C(=O)CF` (stereo not drawn) [FK-011], which “effect on Ab-induced platelet particle formation” value ([1]; inhibitor at 100 uM) is on record?
**A.** unsuccessful

**Q.** With `CC1CNCCN1S(=O)(=O)c1cccc2cnccc12` (stereo not drawn) [H-7] as the molecule, how does the “effect on Ab-induced platelet particle formation” value ([1]; inhibitor at 40 uM) read?
**A.** unsuccessful

**Q.** With `[N-]=[N+]=[N-].[Na+]` [NaAz] as the molecule, how does the “effect on Ab-induced platelet particle formation” value [1] read?
**A.** unsuccessful

**Q.** With `CCCCC[C@H](O)/C=C/[C@H]1[C@H](O)CC(=O)[C@@H]1CCCCCCC(=O)O` [PGE1] as the molecule, how does the “oxidative fragmentation/death in the presence of the agent” value ([1]; agent at 1 μM, n=6) read?
**A.** not induced

**Q.** What does the source list for `CCCCCCCCCCCCCC(=O)O[C@@H]1[C@@H](C)[C@@]2(O)[C@@H](C=C(CO)C[C@]3(O)C(=O)C(C)=C[C@@H]23)[C@@H]2C(C)(C)[C@]12OC(C)=O` [PMA, phorbol 12-myristate 13-acetate]?
**A.** oxidation of platelets loaded with the oxidative fluorochrome DCHF [2]: induce oxidation; induction of platelet oxidation/fragmentation ([2]; 0.4 μM): induced; reactivity (platelet oxidation) in KO mouse platelets [3]: absent

**Q.** Which “effect on Ab-induced platelet particle formation” value [1, 7] does the source give for `O=S(=O)(F)Cc1ccccc1` [PMSF] here?
**A.** unsuccessful

**Q.** Which “effect on Ab-induced platelet particle formation” value ([1]; inhibitor at 200 uM) does the source give for `Oc1ncnc2[nH]ncc12` [allopurinol] here?
**A.** failed to inhibit

**Q.** Which “effect on Ab-induced platelet particle formation” value ([1]; inhibitor at 10 uM) does the source give for `C=C1[C@@H](C)[C@H]2[C@H](Cc3ccccc3)NC(=O)[C@]23[C@H](OC(C)=O)/C=C/[C@@](C)(O)C(=O)[C@@H](C)C/C=C/[C@H]3[C@@H]1O` [cytochalasin D] here?
**A.** unsuccessful

**Q.** Which “effect on Ab-induced platelet particle formation” value ([1]; inhibitor at 20 uM) does the source give for `COc1ccc2c(c1)c(CC(=O)O)c(C)n2C(=O)c1ccc(Cl)cc1` [indomethacin] here?
**A.** failed to inhibit

**Q.** With `CC(=O)N[C@@H](CC(C)C)C(=O)N[C@@H](CC(C)C)C(=O)N[C@H](C=O)CCCNC(=N)N` [leupeptin] as the molecule, how does the “effect on Ab-induced platelet particle formation” value ([1]; inhibitor at 5 ug/ml) read?
**A.** unsuccessful

**Q.** With `CN[C@@H]1C[C@H]2O[C@@](C)([C@@H]1OC)n1c3ccccc3c3c4c(c5c6ccccc6n2c5c31)C(=O)NC4` [staurosporine] as the molecule, how does the “effect on Ab-induced platelet particle formation” value ([1]; inhibitor at 200 uM) read?
**A.** unsuccessful

**Q.** Which “effect on Ab-induced platelet particle formation” value ([1]; inhibitor at 0.2 (unit uncertain)) does the source give for `CC[C@]1(O)C[C@@H]2CN(CCc3c([nH]c4ccccc34)[C@@](C(=O)OC)(c3cc4c(cc3OC)N(C)[C@H]3[C@@](O)(C(=O)OC)[C@H](OC(C)=O)[C@]5(CC)C=CCN6CC[C@]43[C@@H]65)C2)C1` [vinblastine] here?
**A.** unsuccessful

**Q.** With “CAPESIEFPVSEARVLED [GPIIIa49-66 peptide]” as the molecule, how does the “inhibition of HUVEC ADAMTS-18 induced oxidation fragmentation” value [5] read?
**A.** about 50%

**Q.** And the “prevention or reversal of murine thrombocytopenia induced by anti-GPIIIa49-66 Ab” value [6]?
**A.** prevented or reversed

**Q.** With RGDS as the molecule, how does the “inhibition of HUVEC ADAMTS-18 induced oxidation fragmentation” value [5] read?
**A.** about 50%

**Q.** Which results are given for “bio-VQTRSVHCVQQGRPSSSC—OH (Biotin-VQTRSVHCVQQGRPSSSC-OH; cysteine pairing not given here) [18-mer peptide from the C-terminal TSP motif of ADAMTS-18, conjugated to biotin]”?
**A.** platelet oxidation/fragmentation ([2]; peptide alone): no effect; platelet oxidation/fragmentation ([2]; peptide clustered with an anti-biotin antibody, n=6): did induce oxidation/fragmentation

**Q.** For calpastatin, which “effect on Ab-induced platelet particle formation” value ([1]; inhibitor at 100 uM) is on record?
**A.** unsuccessful

**Q.** With catalase as the molecule, how does the “effect on Ab-induced platelet particle formation” value [1, 8] read?
**A.** could inhibit the reaction; also recorded: inhibited

**Q.** What about the “effect of oxidation scavenger on reactivity of A23187 and PMA” value [2] of the same molecule?
**A.** inhibited

**Q.** With superoxide dismutase as the molecule, how does the “effect on Ab-induced platelet particle formation” value [1, 8] read?
**A.** inhibited

B1: HUVEC conditioned media ADAMTS-18: ADAMTS-18 in HUVEC conditioned media (protein, UniProt Q8TE60 285-1221, looked up)
A disintegrin and …: SAGKSQKGLNVETLVVADKKMVEKHGKGNVTTYILTVMNMVSGLFKDGTIGSDINVVVVSLILLEQEPGGLLINHHADQSLNSFCQWQSALIGKNGKRHDHAILLTGFDICSWKNEPCDTLGFAPISGMCSKYRSCTINEDTGLGLAFTIAHESGHNFGMIHDGEGNPCRKAEGNIMSPTLTGNNGVFSWSSCSRQYLKKFLSTPQAGCLVDEPKQAGQYKYPDKLPGQIYDADTQCKWQFGAKAKLCSLGFVKDICKSLWCHRVGHRCETKFMPAAEGTVCGLSMWCRQGQCVKFGELGPRPIHGQWSAWSKWSECSRTCGGGVKFQERHCNNPKPQYGGLFCPGSSRIYQLCNINPCNENSLDFRAQQCAEYNSKPFRGWFYQWKPYTKVEEEDRCKLYCKAENFEFFFAMSGKVKDGTPCSPNKNDVCIDGVCELVGCDHELGSKAVSDACGVCKGDNSTCKFYKGLYLNQHKANEYYPVVLIPAGARSIEIQELQVSSSYLAVRSLSQKYYLTGGWSIDWPGEFPFAGTTFEYQRSFNRPERLYAPGPTNETLVFEILMQGKNPGIAWKYALPKVMNGTPPATKRPAYTWSIVQSECSVSCGGGYINVKAICLRDQNTQVNSSFCSAKTKPVTEPKICNAFSCPAYWMPGEWSTCSKACAGGQQSRKIQCVQKKPFQKEEAVLHSLCPVSTPTQVQACNSHACPPQWSLGPWSQCSKTCGRGVRKRELLCKGSAAETLPESQCTSLPRPELQEGCVLGRCPKNSRLQWVASSWSECSATCGLGVRKREMKCSEKGFQGKLITFPERRCRNIKKPNLDLEETCNRRACPAHPVYNMVAGWYSLPWQQCTVTCGGGVQTRSVHCVQQGRPSSSCLLHQKPPVLRACNTNFCPAPEKREDPSCVDFFNWCHLVPQHGVCNHKFYGKQCCKSCTRKI
modifications: natural, HUVEC conditioned media
notes: ADAMTS-18 in HUVEC conditioned media
**Q.** Which “time of optimum effect of activation by thrombin” value ([2]; thrombin 0.5μ/mL, then neutralized with hirudin, n=4) does the source give for B1 here?
**A.** one
